From PMC4818591 (ChemMedChem, 2015)

How the values were obtained:
[1] = test system: L3.6pl pancreatic cancer cells; assay: Apoptosis by Hoechst staining and PARP cleavage, L3.6pl; type: cell-based; conditions: 10 μM, 24 h
HDAC2 = HDAC2 (Homo sapiens, UniProt Q92769); assay: HDAC2 isozyme inhibition; type: biochemical; conditions: for SI HDAC2/6: selectivity index
[2] = test system: BxPC3 pancreatic cancer cells; assay: Apoptosis induction, BxPC3; type: cell-based; conditions: BxPC3, data not shown
HDAC1 = HDAC1 (Homo sapiens, UniProt Q13547); assay: HDAC1 isozyme inhibition; type: biochemical; conditions: for SI HDAC1/6: selectivity index
HDAC10 = biological target: T1, HDAC10 (Homo sapiens, UniProt Q969S8); assay: HDAC10 isozyme inhibition; type: biochemical; conditions: for SI HDAC10/6: selectivity index
T1 sequence (Q969S8 1-669): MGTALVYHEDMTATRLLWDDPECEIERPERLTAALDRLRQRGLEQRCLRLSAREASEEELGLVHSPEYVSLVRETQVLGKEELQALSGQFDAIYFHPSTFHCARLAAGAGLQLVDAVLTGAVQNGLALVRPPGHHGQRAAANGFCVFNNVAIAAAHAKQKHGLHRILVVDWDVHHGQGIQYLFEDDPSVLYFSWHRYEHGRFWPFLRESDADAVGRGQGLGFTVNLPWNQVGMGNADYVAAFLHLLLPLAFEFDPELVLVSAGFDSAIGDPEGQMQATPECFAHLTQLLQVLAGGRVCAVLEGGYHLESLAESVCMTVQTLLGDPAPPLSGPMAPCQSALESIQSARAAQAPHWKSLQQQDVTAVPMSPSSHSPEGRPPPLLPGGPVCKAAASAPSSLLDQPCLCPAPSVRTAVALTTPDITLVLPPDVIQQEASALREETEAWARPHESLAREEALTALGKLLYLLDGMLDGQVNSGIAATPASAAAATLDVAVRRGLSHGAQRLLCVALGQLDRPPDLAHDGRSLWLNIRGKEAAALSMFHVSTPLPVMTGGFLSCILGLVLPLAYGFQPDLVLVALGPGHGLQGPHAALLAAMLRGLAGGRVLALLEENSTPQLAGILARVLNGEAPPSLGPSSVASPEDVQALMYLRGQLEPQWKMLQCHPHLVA

HDAC3 = HDAC3 (Homo sapiens, UniProt O15379); assay: HDAC3 isozyme inhibition; type: biochemical; conditions: for SI HDAC3/6: selectivity index
[3] = test system: L3.6pl pancreatic cancer cells; assay: Growth inhibition, MTS cell proliferation assay, L3.6pl; type: cell-based; conditions: Homo sapiens, 72 h, read-out: L3.6pl GI50
HDAC6 = biological target: T2, HDAC6 (Homo sapiens, UniProt Q9UBN7); assay: HDAC6 isozyme inhibition; type: biochemical; conditions: read-out: HDAC Isoform, IC50, Class II, 6; duplicate, 10-dose IC50 mode, 3-fold serial dilution starting at 30 μM; average ± standard deviation
T2 sequence (Q9UBN7 1-1215): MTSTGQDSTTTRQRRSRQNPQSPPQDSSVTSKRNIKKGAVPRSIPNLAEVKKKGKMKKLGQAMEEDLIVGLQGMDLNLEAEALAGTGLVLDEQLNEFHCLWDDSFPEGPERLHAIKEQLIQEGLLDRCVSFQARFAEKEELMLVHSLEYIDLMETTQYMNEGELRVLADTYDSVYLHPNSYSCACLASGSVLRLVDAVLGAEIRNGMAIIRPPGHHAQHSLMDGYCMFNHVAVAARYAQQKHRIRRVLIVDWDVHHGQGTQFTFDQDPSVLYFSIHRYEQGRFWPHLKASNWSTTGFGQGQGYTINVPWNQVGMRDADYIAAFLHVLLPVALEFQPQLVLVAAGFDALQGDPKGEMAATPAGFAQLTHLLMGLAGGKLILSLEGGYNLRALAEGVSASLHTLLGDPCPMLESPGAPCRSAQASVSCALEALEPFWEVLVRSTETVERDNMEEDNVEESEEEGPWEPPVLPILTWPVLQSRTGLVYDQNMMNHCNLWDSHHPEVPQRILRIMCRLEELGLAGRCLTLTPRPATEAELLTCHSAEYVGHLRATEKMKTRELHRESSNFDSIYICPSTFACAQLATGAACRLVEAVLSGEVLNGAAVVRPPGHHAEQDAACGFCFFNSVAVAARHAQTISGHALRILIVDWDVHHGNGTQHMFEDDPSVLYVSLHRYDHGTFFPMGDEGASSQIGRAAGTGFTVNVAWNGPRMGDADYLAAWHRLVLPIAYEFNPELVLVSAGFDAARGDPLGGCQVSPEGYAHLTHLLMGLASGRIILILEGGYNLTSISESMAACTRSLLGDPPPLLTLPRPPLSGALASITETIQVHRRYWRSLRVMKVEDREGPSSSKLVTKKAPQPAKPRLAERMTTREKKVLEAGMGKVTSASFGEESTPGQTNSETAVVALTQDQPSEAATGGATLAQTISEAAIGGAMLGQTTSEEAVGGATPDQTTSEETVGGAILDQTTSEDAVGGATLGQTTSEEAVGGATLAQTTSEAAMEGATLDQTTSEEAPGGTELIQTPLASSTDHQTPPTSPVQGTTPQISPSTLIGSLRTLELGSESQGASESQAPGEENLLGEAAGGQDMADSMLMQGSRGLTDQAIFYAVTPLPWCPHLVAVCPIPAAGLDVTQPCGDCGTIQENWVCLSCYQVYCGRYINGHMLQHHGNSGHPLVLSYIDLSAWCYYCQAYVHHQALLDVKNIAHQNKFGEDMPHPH

[4] = test system: BxPC3 subcutaneous xenograft; conditions: BxPC3 subcutaneous xenograft mouse model; cited from earlier work

HDAC3, sequence (O15379 whole entry): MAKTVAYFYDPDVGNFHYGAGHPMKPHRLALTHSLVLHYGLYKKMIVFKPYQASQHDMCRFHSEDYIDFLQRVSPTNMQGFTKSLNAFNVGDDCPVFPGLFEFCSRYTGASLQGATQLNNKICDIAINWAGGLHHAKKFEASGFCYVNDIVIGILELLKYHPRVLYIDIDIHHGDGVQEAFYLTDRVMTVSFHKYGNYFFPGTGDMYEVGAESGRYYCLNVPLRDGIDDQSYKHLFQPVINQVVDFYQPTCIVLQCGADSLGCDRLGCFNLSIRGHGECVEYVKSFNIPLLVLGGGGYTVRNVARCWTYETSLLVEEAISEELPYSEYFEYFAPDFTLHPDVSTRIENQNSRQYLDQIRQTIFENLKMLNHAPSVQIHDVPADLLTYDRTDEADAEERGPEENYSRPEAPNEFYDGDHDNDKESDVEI
HDAC3, sequence (Q9Y618 395-489 partner limits assumed): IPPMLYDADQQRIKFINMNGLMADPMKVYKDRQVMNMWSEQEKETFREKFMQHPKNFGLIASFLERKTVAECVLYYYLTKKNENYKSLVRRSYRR
HDAC1, sequence (Q13547 whole entry): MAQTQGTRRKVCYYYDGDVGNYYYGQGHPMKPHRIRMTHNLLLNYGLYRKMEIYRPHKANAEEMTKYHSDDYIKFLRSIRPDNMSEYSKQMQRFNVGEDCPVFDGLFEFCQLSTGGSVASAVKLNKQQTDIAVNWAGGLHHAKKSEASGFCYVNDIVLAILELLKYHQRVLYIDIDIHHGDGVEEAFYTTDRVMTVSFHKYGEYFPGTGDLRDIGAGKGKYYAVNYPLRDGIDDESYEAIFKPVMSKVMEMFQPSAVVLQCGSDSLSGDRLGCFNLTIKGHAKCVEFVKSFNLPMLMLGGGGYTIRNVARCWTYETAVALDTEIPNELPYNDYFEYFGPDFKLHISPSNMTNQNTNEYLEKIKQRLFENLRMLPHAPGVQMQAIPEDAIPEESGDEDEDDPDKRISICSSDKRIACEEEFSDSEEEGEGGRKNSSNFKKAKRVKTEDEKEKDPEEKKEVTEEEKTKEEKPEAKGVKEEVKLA
HDAC2, sequence (Q92769 whole entry): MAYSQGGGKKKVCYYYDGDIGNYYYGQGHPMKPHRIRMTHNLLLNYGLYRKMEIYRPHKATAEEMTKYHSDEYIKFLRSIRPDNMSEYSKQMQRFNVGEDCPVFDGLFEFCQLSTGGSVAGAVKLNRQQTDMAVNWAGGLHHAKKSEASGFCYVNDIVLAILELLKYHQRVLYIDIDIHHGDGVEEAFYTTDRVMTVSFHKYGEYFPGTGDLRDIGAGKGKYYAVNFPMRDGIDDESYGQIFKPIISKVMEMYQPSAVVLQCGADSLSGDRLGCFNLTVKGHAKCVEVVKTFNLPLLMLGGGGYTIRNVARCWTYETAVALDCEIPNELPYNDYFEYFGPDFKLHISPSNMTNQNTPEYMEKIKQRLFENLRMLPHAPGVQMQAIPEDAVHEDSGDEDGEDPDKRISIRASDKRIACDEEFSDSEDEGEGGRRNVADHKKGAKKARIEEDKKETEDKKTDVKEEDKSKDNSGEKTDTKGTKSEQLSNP

SI HDAC2/6 (HDAC2)	SI HDAC1/6 (HDAC1)	SI HDAC10/6 (HDAC10)	SI HDAC3/6 (HDAC3)	GI50 [3]	IC50 (HDAC6)	IC50 (HDAC2; read-out: HDAC Isoform, IC50, Class I, 2, singlet, 10-dose IC50 mode, 3-fold serial dilution starting at 30 μM, >50000 = no inhibition at 50 μM)	IC50 (HDAC1; read-out: HDAC Isoform, IC50, Class I, 1, singlet, 10-dose IC50 mode, 3-fold serial dilution starting at 30 μM, >50000 = no inhibition at 50 μM)	IC50 (HDAC10; read-out: HDAC Isoform, IC50, Class II, 10, singlet, 10-dose IC50 mode, 3-fold serial dilution starting at 30 μM, >50000 = no inhibition at 50 μM)	IC50 (HDAC3; read-out: HDAC Isoform, IC50, Class I, 3, singlet, 10-dose IC50 mode, 3-fold serial dilution starting at 30 μM, >50000 = no inhibition at 50 μM)	SMILES	induction of apoptosis (Hoechst staining, PARP cleavage) [1]	induction of apoptosis [2]	apoptosis and tumor growth [4]
15	4.3	10	11	1300 nM						O=C(CCCc1cc(C(=O)NO)no1)Nc1nc(-c2ccccc2)cs1 [Compound 1, 5-[3-[N-(4-Phenylthiazol-2-yl)carbamoyl]propyl]isoxazole-3-carbohydroxamic Acid]	effectively induced apoptosis	none of compounds 1, 2, or 4 induced apoptosis	
37	10	13	10		31 ± 3.4 nM	1140 nM	307 nM	407 nM	320 nM	O=C(CCc1cc(C(=O)NO)no1)Nc1nc(-c2ccccc2)cs1 [Compound 2, 5-[2-[N-(4-Phenylthiazol-2-yl)carbamoyl]ethyl]isoxazole-3-carbohydroxyamic Acid]	effectively induced apoptosis	none of compounds 1, 2, or 4 induced apoptosis	
17	4.1	6.6	7.2							CCOC(=O)Nc1ccc(-c2csc(NC(=O)CCCc3cc(C(=O)NO)no3)n2)cc1 [Compound 4, N-[4-[2-[4-[3-(N-Hydroxycarbamoyl)isoxazol-5-yl]butyrylamino]thiazol-4-yl]phenyl]carbamic Acid Ethyl Ester]	effectively induced apoptosis	none of compounds 1, 2, or 4 induced apoptosis	
										Cc1[nH]c2ccccc2c1CCNCc1ccc(/C=C/C(=O)NO)cc1 [panobinostat]			promote apoptosis and reduce tumor growth
